In patent US9156827B2, “Anticancer agent” (THE UNIVERSITY OF TOKYO, priority 2010, dated 2015):
Counter-ions that a name gives are not always drawn.

What was measured:
[1] = tested on: Human acute myeloid leukemia MV4-11 cells; assay: Cell proliferation-suppressing activity, chromogenic method (MTT assay); assay type: cell-based; conditions: 72 h, compound 1 μM, MTT assay three days after addition
Procedure: (§1) Measurement of Cell Proliferation-Suppressing Activity (Chromogenic Method)
Human acute myeloid leukemia MV4-11 cells (10^4 cells) were inoculated on a 96-well microtiter plate, each compound was added at a final concentration of 1 μM 24 hours afterward, and MTT assay was performed three days after the addition of the compound to measure the cell proliferation-suppressing activity.

[2] = target: pim-1 kinase (Homo sapiens, UniProt P11309); assay: Measurement of pim-1 kinase inhibitory activity (fluorescent substrate peptide, capillary electrophoresis); assay type: biochemical; conditions: 0.1 μM of each compound, 30 μM ATP, 1.5 μM substrate peptide, room temperature 2 hours
pim-1 kinase, sequence (P11309 whole entry): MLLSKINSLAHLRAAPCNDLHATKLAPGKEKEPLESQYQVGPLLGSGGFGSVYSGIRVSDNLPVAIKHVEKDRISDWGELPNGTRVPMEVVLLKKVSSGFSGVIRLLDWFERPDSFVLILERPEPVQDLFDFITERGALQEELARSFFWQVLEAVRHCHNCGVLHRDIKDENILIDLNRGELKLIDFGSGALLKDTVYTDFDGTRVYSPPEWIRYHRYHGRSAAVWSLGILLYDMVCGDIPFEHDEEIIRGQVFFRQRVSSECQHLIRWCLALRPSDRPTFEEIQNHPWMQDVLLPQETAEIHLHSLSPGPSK
Procedure: Measurement of Pim-1 Kinase Inhibitory Activity
The result of the reaction was determined by quantifying the substrate and the phosphorylated reaction product separated by capillary electrophoresis based on difference in charges of the substances (EZ Reader II, Caliper Life Sciences, was used).

[3] = tested on: Human acute myeloid leukemia MV4-11 cells; assay: Cell proliferation-suppressing activity, chromogenic method (Cell Counting Kit-8); assay type: cell-based; conditions: compound 1 μM, 48 hours, Cell Counting Kit-8, absorbance 450 nm, Table 7
Procedure: as §1
Human acute myeloid leukemia MV4-11 cells (2×10^4 cells) are inoculated on a 96-well microtiter plate. Each compound is added at a final concentration of 1 μM on the next day, and the cells are cultured for additional 48 hours. Absorbance is measured at 450 nm by using Cell Counting Kit-8 (Nacalai Tesque) to calculate the cell proliferation-suppressing activity.

Row | inhibition at 0.1 µM ([2]; Table 1) | inhibition at 0.1 µM ([2]; Table 2) | SMILES | inhibition at 1 µM ([1]; Table 3) | inhibition at 1 µM ([1]; Table 4) | inhibition at 1 µM [3]
1 | 47% | – | CN(C)C1CCN(Cc2c(O)ccc3c2O/C(=C\c2c[nH]c4ccccc24)C3=O)C1 (stereo not shown) [Compound A3, (Z)-2-[(1H-Indol-3-yl)methylene]-7-{[3-(dimethylamino)pyrrolidin-1-yl]methyl}-6-hydroxybenzofuran-3(2H)-one] | 41% | – | –
2 | 81% | – | O=C1CN(Cc2c(O)ccc3c2O/C(=C\c2c[nH]c4ccccc24)C3=O)CCN1 [Compound A7, (Z)-4-({2-[(1H-Indol-3-yl)methylene]-6-hydroxy-3-oxo-2,3-dihydrobenzofuran-7-yl}methyl)piperazin-2-one] | 22% | – | –
3 | 87% | – | O=C1/C(=C/c2c[nH]c3ccccc23)Oc2c1ccc(O)c2CN1CCNCC1 [Compound A11, (Z)-2-[(1H-Indol-3-yl)methylene]-6-hydroxy-7-(piperazin-1-ylmethyl)benzofuran-3(2H)-one] | 82% | – | –
4 | 82% | – | O=C1/C(=C/c2c[nH]c3ccc([N+](=O)[O-])cc23)Oc2c1ccc(O)c2CN1CCNCC1 [Compound A17, (Z)-6-Hydroxy-2-[(5-nitro-1H-indol-3-yl)methylene]-7-(piperazin-1-ylmethyl)benzofuran-3(2H)-one dihydrochloride] | 73% | – | –
5 | 94% | – | O=C1/C(=C/c2c[nH]c3ccc(Br)cc23)Oc2c1ccc(O)c2CN1CCNCC1 [Compound A22, (Z)-2-[(5-Bromo-1H-indol-3-yl)methylene]-6-hydroxy-7-(piperazin-1-ylmethyl)benzofuran-3(2H)-one dihydrochloride] | 70% | – | –
6 | – | 79% | C[C@H]1CNCCN1Cc1c(O)ccc2c1O/C(=C\c1n[nH]c3ccccc13)C2=O [Compound B3, (Z)-2-[(1H-Indazol-3-yl)methylene]-6-hydroxy-7-{[2-(S)-methylpiperazin-1-yl]methyl}benzofuran-3(2H)-one] | – | 79% | –
7 | – | 86% | CC(c1c(O)ccc2c1O/C(=C\c1n[nH]c3ccccc13)C2=O)N1CCNCC1 (stereo not shown) [Compound B7, (Z)-2-[(1H-Indazol-3-yl)methylene]-6-hydroxy-7-[1-(piperazin-1-yl)ethyl]benzofuran-3(2H)-one] | – | 88% | –
8 | – | 100% | COc1ccc2c(c1CN1CCNCC1)O/C(=C\c1n[nH]c3ccccc13)C2=O [Compound B17, (Z)-2-[(1H-Indazol-3-yl)methylene]-6-methoxy-7-(piperazin-1-ylmethyl)benzofuran-3(2H)-one] | – | 93% | –
9 | – | 95% | COc1ccc2c(c1CN1CCNCC1)O/C(=C\c1n[nH]c3ccc(Cl)cc13)C2=O [Compound B18, (Z)-2-[(5-Chloro-1H-indazol-3-yl)methylene]-6-methoxy-7-(piperazin-1-ylmethyl)benzofuran-3(2H)-one] | – | 87% | –
10 | – | 100% | COc1ccc2c(c1CN1CCNCC1)O/C(=C\c1n[nH]c3ccc(Br)cc13)C2=O [Compound B19, (Z)-2-[(5-Bromo-1H-indazol-3-yl)methylene]-6-methoxy-7-(piperazin-1-ylmethyl)benzofuran-3(2H)-one] | – | 94% | –
11 | – | 84% | COc1ccc2c(c1C#CC1CCNCC1)O/C(=C\c1n[nH]c3ccccc13)C2=O [Compound B55, (Z)-2-[(1H-Indazol-3-yl)methylene]-6-methoxy-7-(piperidin-4-ylethynyl)benzofuran-3(2H)-one] | – | – | 99%
12 | – | 95% | COc1ccc2c(c1/C=C\C1CCNCC1)O/C(=C\c1n[nH]c3ccccc13)C2=O [Compound B56, (Z)-2-[(1H-Indazol-3-yl)methylene]-6-methoxy-7-[(Z)-2-(piperidin-4-yl)vinyl]benzofuran-3(2H)-one] | – | – | 99%
13 | – | 89% | COc1ccc2c(c1CCC1CCNCC1)O/C(=C\c1n[nH]c3ccccc13)C2=O [Compound B57, (Z)-2-[(1H-Indazol-3-yl)methylene]-6-methoxy-7-[2-(piperidin-4-yl)ethyl]benzofuran-3(2H)-one] | – | – | 99%
14 | – | 90% | COc1ccc2c(c1C#CCC1CCNCC1)O/C(=C\c1n[nH]c3ccccc13)C2=O [Compound B58, (Z)-2-[(1H-Indazol-3-yl)methylene]-6-methoxy-7-[3-(piperidin-4-yl)prop-1-ynyl]benzofuran-3(2H)-one] | – | – | 94%
15 | – | 96% | COc1ccc2c(c1/C=C\CC1CCNCC1)O/C(=C\c1n[nH]c3ccccc13)C2=O [Compound B59, (Z)-2-[(1H-Indazol-3-yl)methylene]-6-methoxy-7-[(Z)-3-(piperidin-4-yl)prop-1-enyl]benzofuran-3(2H)-one] | – | – | 55%
16 | – | 95% | COc1ccc2c(c1CCCC1CCNCC1)O/C(=C\c1n[nH]c3ccccc13)C2=O [Compound B60, (Z)-2-[(1H-Indazol-3-yl)methylene]-6-methoxy-7-[3-(piperidin-4-yl)propyl]benzofuran-3(2H)-one] | – | – | 98%
17 | – | 70% | COc1ccc2c(c1C#CCCC1CCNCC1)O/C(=C\c1n[nH]c3ccccc13)C2=O [Compound B61, (Z)-2-[(1H-Indazol-3-yl)methylene]-6-methoxy-7-[4-(piperidin-4-yl)but-1-ynyl]benzofuran-3(2H)-one] | – | – | 97%
18 | – | 71% | COc1ccc2c(c1/C=C\CCC1CCNCC1)O/C(=C\c1n[nH]c3ccccc13)C2=O [Compound B62, (Z)-2-[(1H-Indazol-3-yl)methylene]-6-methoxy-7-[(Z)-4-(piperidin-4-yl)but-1-enyl]benzofuran-3(2H)-one] | – | – | 93%
19 | – | 95% | COc1ccc2c(c1CCCCC1CCNCC1)O/C(=C\c1n[nH]c3ccccc13)C2=O [Compound B63, (Z)-2-[(1H-Indazol-3-yl)methylene]-6-methoxy-7-[4-(piperidin-4-yl)butyl]benzofuran-3(2H)-one] | – | – | 95%
20 | – | 81% | COc1ccc2c(c1/C=C/C1CCNCC1)O/C(=C\c1n[nH]c3ccccc13)C2=O [Compound B64, (Z)-2-[(1H-Indazol-3-yl)methylene]-6-methoxy-7-[(E)-2-(piperidin-4-yl)vinyl]benzofuran-3(2H)-one] | – | – | 93%
21 | – | 73% | COc1ccc2c(c1/C=C/CC1CCNCC1)O/C(=C\c1n[nH]c3ccccc13)C2=O [Compound B65, (Z)-2-[(1H-Indazol-3-yl)methylene]-6-methoxy-7-[(E)-3-(piperidin-4-yl)prop-1-enyl]benzofuran-3(2H)-one] | – | – | 97%
22 | – | 89% | COc1c(F)cc2c(c1CCC1CCNCC1)O/C(=C\c1n[nH]c3ccccc13)C2=O [Compound B66, (Z)-2-[(1H-Indazol-3-yl)methylene]-5-fluoro-6-methoxy-7-[2-(piperidin-4-yl)ethyl]benzofuran-3(2H)-one] | – | – | 88%
23 | – | 46% | COc1ccc2c(c1C#CC(C)(C)N1CCNCC1)O/C(=C\c1n[nH]c3ccccc13)C2=O [Compound B67, (Z)-2-[(1H-Indazol-3-yl)methylene]-6-methoxy-7-[3-methyl-3-(piperazin-1-yl)but-1-ynyl]benzofuran-3(2H)-one] | – | – | 96%
24 | – | 93% | O=C1/C(=C/c2n[nH]c3ncccc23)Oc2c1ccc(O)c2CN1CCNCC1 [Compound B68, (Z)-2-[(1H-Pyrazolo[3,4-b]pyridin-3-yl)methylene]-6-hydroxy-7-(piperazin-1-ylmethyl)benzofuran-3(2H)-one] | – | – | 52%
25 | – | 95% | COc1ccc2c(c1CN1CCNCC1)O/C(=C\c1n[nH]c3ncccc13)C2=O [Compound B69, (Z)-2-[(1H-Pyrazolo[3,4-b]pyridin-3-yl)methylene]-6-methoxy-7-(piperazin-1-ylmethyl)benzofuran-3(2H)-one] | – | – | 100%
26 | – | 94% | O=C1/C(=C/c2n[nH]c3ncccc23)Oc2c(CN3CCNCC3)cccc21 [Compound B70, (Z)-2-[(1H-Pyrazolo[3,4-b]pyridin-3-yl)methylene]-7-(piperazin-1-ylmethyl)benzofuran-3(2H)-one] | – | – | 77%
27 | – | 95% | COc1ccc2c(c1CC1CCNCC1)O/C(=C\c1n[nH]c3ncccc13)C2=O [Compound B71, (Z)-2-[(1H-Pyrazolo[3,4-b]pyridin-3-yl)methylene]-6-methoxy-7-(piperidin-4-ylmethyl)benzofuran-3(2H)-one] | – | – | 100%
28 | – | 97% | COc1ccc2c(c1CCC1CCNCC1)O/C(=C\c1n[nH]c3ncccc13)C2=O [Compound B72, (Z)-2-[(1H-Pyrazolo[3,4-b]pyridin-3-yl)methylene]-6-methoxy-7-[2-(piperidin-4-yl)ethyl]benzofuran-3(2H)-one] | – | – | 93%
29 | – | 49% | COc1ccc2c(c1Cc1c(C)n[nH]c1C)O/C(=C\c1n[nH]c3ccccc13)C2=O [Compound B73, (Z)-2-[(1H-Indazol-3-yl)methylene]-7-[(3,5-dimethyl-1H-pyrazol-4-yl)methyl]-6-methoxybenzofuran-3(2H)-one] | – | – | 81%
